Measurements taken from ChEMBL document CHEMBL3870366, “Rational design, synthesis, and structure-activity relationships of 5-amino-1H-pyrazole-4-carboxylic acid derivatives as protein tyrosine phosphatase 1B inhibitors” (Bioorg Med Chem, 2017).

Assays:
[1] = Intrinsic clearance in rat liver microsomes at 1 uM preincubated for 5 mins followed by NADPH addition measured up to 30 mins by LC-MS/MS analysis; type: ADME; conditions: 0.5 h
[2] = Intrinsic clearance in mouse liver microsomes at 1 uM preincubated for 5 mins followed by NADPH addition measured up to 30 mins by LC-MS/MS analysis; type: ADME; conditions: 0.5 h
[3] = target: T1, Tyrosine-protein phosphatase non-receptor type 1 (Homo sapiens) (UniProt P18031); experiment: Inhibition of recombinant human PTP1B expressed in Escherichia coli expression system using pNPP as substrate at 10 uM preincubated for 30 mins followed by substrate addition by […]
T1 sequence (whole entry): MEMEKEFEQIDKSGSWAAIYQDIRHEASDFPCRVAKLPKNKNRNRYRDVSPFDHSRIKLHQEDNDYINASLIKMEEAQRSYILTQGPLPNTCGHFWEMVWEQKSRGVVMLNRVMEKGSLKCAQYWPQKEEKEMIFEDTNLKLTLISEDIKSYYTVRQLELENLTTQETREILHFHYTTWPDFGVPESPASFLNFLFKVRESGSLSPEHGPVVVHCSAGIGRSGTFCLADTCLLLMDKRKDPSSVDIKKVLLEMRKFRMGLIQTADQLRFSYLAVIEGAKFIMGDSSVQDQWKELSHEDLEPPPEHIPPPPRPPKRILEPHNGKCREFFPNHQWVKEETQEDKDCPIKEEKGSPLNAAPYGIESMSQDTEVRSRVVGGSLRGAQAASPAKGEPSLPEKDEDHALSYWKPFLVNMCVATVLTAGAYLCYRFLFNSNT

[4] = target: T2, Tyrosine-protein phosphatase non-receptor type 1 (Homo sapiens, UniProt P18031); experiment: Inhibition of recombinant human PTP1B expressed in Escherichia coli expression system using pNPP as substrate preincubated for 30 mins followed by substrate addition by […]
T2 sequence (P18031 whole entry): T1 sequence (whole entry)

[5] = target: T1, Tyrosine-protein phosphatase non-receptor type 1 (Homo sapiens); experiment: Inhibition of recombinant human PTP1B expressed in Escherichia coli expression system using pNPP as substrate at 100 uM preincubated for 30 mins followed by substrate addition by […]
[6] = Intrinsic permeability of compound at 50 uM at pH 7.4 after 16 hrs by PAMPA assay; type: ADME

| SMILES | intrinsic clearance (CLint) [1] [mL/min/g] | CLH [2] [mL/min/g] | inhibition [3] [%] | Ki [4] [µM] | inhibition [5] [%] | Papp at 16 h, 50 µM [6] [×10⁻⁶ cm/s] |
| --- | --- | --- | --- | --- | --- | --- |
| Nc1c(C(=O)O)cnn1-c1ccc(CN(Cc2ccc(Cl)cc2)Cc2ccc(F)c(F)c2)cc1 | 2 | 1.2 | 22.5 | 11 | 97.2 | 49.8 |
| COc1ccc(CN(Cc2ccc(C)cc2)Cc2ccc(-n3ncc(C(=O)O)c3N)cc2)cc1 | – | – | 5 | – | 49.7 | – |
| Nc1c(C(=O)O)cnn1-c1ccc(CC(c2ccc(F)cc2)c2nc(-c3ccc(Cl)cc3)no2)cc1 (stereo not given) | 3 | 0 | 30.8 | 4.6 | 97.3 | 9.1 |
| Nc1c(C(=O)O)cnn1-c1ccc(CN(Cc2ccc(F)cc2)Cc2ccc(F)c(F)c2)cc1 | 3 | 2.7 | 19.5 | 13 | 95.2 | 27.9 |
| Nc1c(C(=O)O)cnn1-c1ccc(CC(c2ccc(F)cc2)c2nc(-c3cccc(F)c3)no2)cc1 (stereo not given) | – | – | 19 | – | 94.9 | – |
| Nc1c(C(=O)O)cnn1-c1ccc(CC(c2ccccc2)c2nc(-c3ccccc3)no2)cc1 (stereo not given) | – | – | 12.2 | – | 64 | – |
| COc1ccc(CN(Cc2ccc(F)cc2)Cc2ccc(-n3ncc(C(=O)O)c3N)cc2)cc1 | – | – | 21.6 | – | 82.2 | – |
| COc1ccc(C(Cc2ccc(-n3ncc(C(=O)O)c3N)cc2)c2nc(-c3cccc(F)c3)no2)cc1 (stereo not given) | 3 | 1.3 | 22 | 8.6 | 93.3 | – |
| COc1ccc(C(=O)C(Cc2ccc(-n3ncc(C(=O)O)c3N)cc2)c2ccc(OC)cc2)cc1 (stereo not given) | – | – | 4.8 | – | 39.7 | – |
| Nc1c(C(=O)O)cnn1-c1ccc(CC(C(=O)c2ccc(F)cc2)c2ccc(F)c(F)c2)cc1 (stereo not given) | – | – | 21.6 | – | 82.2 | – |
| CC(C)NCC(O)COc1cccc2ccccc12 (stereo not given) [PROPRANOLOL] | – | – | – | – | – | 16.6 |
| Nc1c(C(=O)O)cnn1-c1ccc(CN(Cc2ccc(F)cc2)Cc2ccc(Cl)cc2)cc1 | 3 | 2.1 | 43.8 | 4.5 | 97.4 | 10.6 |
| Nc1c(C(=O)O)cnn1-c1ccc(CC(C(=O)c2ccc(Cl)cc2)c2ccc(F)c(F)c2)cc1 (stereo not given) | – | – | 16.2 | – | 91.5 | 1.5 |
| COc1ccc(-c2noc(C(Cc3ccc(-n4ncc(C(=O)O)c4N)cc3)c3ccc(F)cc3)n2)cc1 (stereo not given) | 3 | 1.5 | 25.8 | 8.1 | 95.5 | 0.4 |
| Nc1c(C(=O)O)cnn1-c1ccc(CC(C(=O)c2ccccc2)c2ccc(F)cc2)cc1 (stereo not given) | – | – | 19 | – | 43.9 | – |
| Nc1c(C(=O)O)cnn1-c1ccc(CC(C(=O)c2ccccc2)c2ccccc2)cc1 (stereo not given) | – | – | 9.6 | – | 32.6 | – |
| Nc1c(C(=O)O)cnn1-c1ccc(CN(Cc2ccc(F)cc2)Cc2ccc(F)cc2)cc1 | – | – | 40.8 | – | 98.4 | – |
| Nc1c(C(=O)O)cnn1-c1ccc(CC(C(=O)c2ccccc2)c2ccc(F)c(F)c2)cc1 (stereo not given) | – | – | 10.5 | – | 48.5 | – |
| COc1ccc(C(Cc2ccc(-n3ncc(C(=O)O)c3N)cc2)c2nc(-c3ccc(Cl)cc3)no2)cc1 (stereo not given) | 2 | 1.5 | 33.7 | 4.4 | 98.3 | – |
| Nc1c(C(=O)O)cnn1-c1ccc(CC(C(=O)c2ccc(F)cc2)c2ccc(F)cc2)cc1 (stereo not given) | – | – | 0.8 | – | 34.4 | – |
| Nc1c(C(=O)O)cnn1-c1ccc(CN(Cc2ccccc2)Cc2ccccc2)cc1 | – | – | 8.9 | – | 64 | – |
| COc1ccc(C(=O)C(Cc2ccc(-n3ncc(C(=O)O)c3N)cc2)c2ccc(F)cc2)cc1 (stereo not given) | – | – | 13.5 | – | 58.5 | – |
| Nc1c(C(=O)O)cnn1-c1ccc(CC(C(=O)c2ccc(F)cc2)c2ccccc2)cc1 (stereo not given) | – | – | 12.1 | – | 36.8 | – |
| COc1ccc(CN(Cc2ccc(F)cc2)Cc2ccc(-n3ncc(C(=O)O)c3N)cc2)cc1OC | 4 | 7.4 | 35.1 | 4.1 | 94 | – |
| Nc1c(C(=O)O)cnn1-c1ccc(CC(C(=O)c2ccc(Cl)cc2)c2ccc(F)cc2)cc1 (stereo not given) | – | – | 18.8 | – | 89.5 | – |
| COc1ccc(CN(Cc2ccc(OC)cc2)Cc2ccc(-n3ncc(C(=O)O)c3N)cc2)cc1 | 2.5 | 5.6 | 9.9 | 7.1 | 76.9 | 12.5 |
